Laboratory results published in patent US12036208B2, “Methods for treating neurodegenerative disorders” (Alzheon, Inc., priority 2017, dated 2024).

biological target: T1, recombinant human β-Amyloid Peptide (1-42) (Homo sapiens, UniProt P05067); experiment: Binding assay: mass spectrometry (Q-TOF) of compounds binding to Aβ1-42; conditions: 22 pmol/μL β-Amyloid Peptide (1-42), 1100 pmol/μL test compound; direct infusion Q-TOF MS at room temperature
T1 construct: recombinant human β-Amyloid Peptide (1-42) from BioLegend; purchased BioLegend 843801
Excerpt: The activity of the compounds utilized in the methods described herein can be assayed by measuring the binding of those compounds to β-amyloid. Data acquisition can be performed using a Waters Synapt G2-S quadrupole time of flight mass spectrometer (Q-TOF MS) with traveling wave ion mobility (Waters Corp. 34 Maple Street Milford, MA 01757). The data can be acquired using the systems sensitivity mode to allow for the detection of the less abundant oligomers. Samples can be infused at room temperature due to lower solubility of the peptide at body temperature ([…]).
One mg of compound can be reconstituted in 1 mL of Fisher Optima LC/MS grade water (cat: W6-1) and vortexed vigorously for 2 minutes until completely dissolved. The sample can be then diluted to create a 220 pmol/μL, 2200 pmol/μL, and 22,000 pmol/μL solutions to perform binding experiments to Aβ42 with 10-, 100-, and 1000-fold molar excess of tested compound.
One mg of recombinant human β-Amyloid Peptide (1-42) from BioLegend can be reconstituted in 200 μL of Fisher Optima LC/MS grade water and vortexed vigorously to solubilize the peptide creating a 5 mg/mL solution. Samples can be then diluted to a final concentration of 44 pmol/μL prior to mixing (1:1) with test compound solution. Final concentrations were 22 pmol/μL for human β-Amyloid Peptide (1-42) and 1100 pmol/μL for test compounds.
The data acquisition was performed using a Waters time of flight mass spectrometer (Q-TOF Micro). The data was acquired using the scanning mode to allow for the detection of the peptide. Samples were infused at room temperature. The mass spectrometer conditions were maintained throughout the study to ensure consistency of the data. The Waters Q-TOF conditions were as follows:
Samples were directly infused into the mass spectrometer at a flow rate of 20 μL/min using in-build Syringe Pump and Hamilton 1 mL Syringe and the acquisition time was kept 2 minutes.

T1 sequence (P05067 672-713 limits assumed): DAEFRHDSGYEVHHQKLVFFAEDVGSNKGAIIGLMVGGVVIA

Compared with O=S(=O)(O)c1nnc[nH]1 [Compound 117], Cn1cnnc1S(=O)(=O)O [Compound 119] is lower in “Number of Molecules Bound to Aβ1-42 (# of Molecules Bound to Aβ)” value (“Number of Molecules Bound” below): 3 for the first, 0 for the second.

Compared with Cn1cc(S(=O)(=O)O)cn1 [Compound 118], Nc1ccc(S(=O)(=O)O)cn1 [Compound 170] is higher in “Number of Molecules Bound” value: 1 for the first, 6 for the second.

Compared with C[n+]1cccc(S(=O)(=O)[O-])c1 [Compound 120], CC[n+]1ccc(-c2cccc(S(=O)(=O)[O-])c2)o1 [Compound 153] is lower in “Number of Molecules Bound” value: 8 for the first, 5 for the second.

Nc1cccc(S(=O)(=O)O)c1 [Compound 121] and Nc1ccc(S(=O)(=O)O)cc1 [Compound 122] are the same in “Number of Molecules Bound” value: 0 for the first, 0 for the second.

Going from Nc1ncc(S(=O)(=O)O)s1 [Compound 124] to Nc1ccncc1S(=O)(=O)O [Compound 171], the “Number of Molecules Bound” value rises from 3 to 7.

NCc1ccc(S(=O)(=O)O)cc1 [Compound 125] and Nc1cccc2ccc(S(=O)(=O)O)cc12 [Compound 136] are the same in “Number of Molecules Bound” value: 0 for the first, 0 for the second.

Compared with Nc1ccc(N)c(S(=O)(=O)O)c1 [Compound 126], Nc1ccc(S(=O)(=O)O)c(N)c1 [Compound 127] is lower in “Number of Molecules Bound” value: 1 for the first, 0 for the second.

Nc1cc(S(=O)(=O)O)ccc1O [Compound 128] and Nc1cccc2cc(S(=O)(=O)O)ccc12 [Compound 139] are the same in “Number of Molecules Bound” value: 0 for the first, 0 for the second.

Going from O=S(=O)(O)c1ccc2[nH]cnc2c1 [Compound 130] to Nc1nc2ccc(S(=O)(=O)O)cc2s1 [Compound 142], the “Number of Molecules Bound” value rises from 0 to 2.

O=S(=O)(O)c1ccc2c(c1)NCC2 [Compound 131] and O=C1Nc2ccc(S(=O)(=O)O)cc2CO1 [Compound 141] are the same in “Number of Molecules Bound” value: 0 for the first, 0 for the second.

Cn1c(S(=O)(=O)O)nc2ccccc21 [Compound 133] and CCCn1c(S(=O)(=O)O)nc2ccccc21 [Compound 145] are the same in “Number of Molecules Bound” value: 0 for the first, 0 for the second.

Going from Nc1ncnc2[nH]c(S(=O)(=O)O)nc12 [Compound 134] to Nc1nc2cc(S(=O)(=O)O)cc(N)c2o1 [Compound 172], the “Number of Molecules Bound” value falls from 2 to 0.

Nc1ccc2cc(S(=O)(=O)O)ccc2c1 [Compound 135] and Nc1ccc2cc(S(=O)(=O)O)ccc2c1.O [Compound 146] are the same in “Number of Molecules Bound” value: 0 for the first, 0 for the second.

Nc1ccc(S(=O)(=O)O)c2ccccc12 [Compound 137] and Nc1cccc2c(S(=O)(=O)O)cccc12 [Compound 138] are the same in “Number of Molecules Bound” value: 0 for the first, 0 for the second.

Nc1ccc2c(S(=O)(=O)O)cccc2c1 [Compound 140] and Nc1ccc2c(S(=O)(=O)O)cccc2c1N [Compound 144] are the same in “Number of Molecules Bound” value: 0 for the first, 0 for the second.

Nc1cc(S(=O)(=O)O)cc(C(=O)O)c1O [Compound 143] and O=C(O)c1cc(=O)n(-c2ccc(S(=O)(=O)O)cc2)[nH]1 [Compound 161] are the same in “Number of Molecules Bound” value: 0 for the first, 0 for the second.

First: Cc1cc(C)[n+]2cc(S(=O)(=O)[O-])sc2n1 [Compound 148]
Second: Cc1cc(C)n(-c2ccc(S(=O)(=O)O)cc2)n1 [Compound 152]
The “Number of Molecules Bound” value of the first is higher: 5 for the first, 1 for the second.

Going from Nc1ccc2ccc(S(=O)(=O)[O-])cc2c1.[Na+] [Compound 149] to Nc1ccc(Nc2ccc(N)cc2S(=O)(=O)O)cc1 [Compound 160], the “Number of Molecules Bound” value rises from 0 to 1.

O=S(=O)(O)c1ccc(Nc2ccccc2)cc1 [Compound 150] and NC1=NN(c2ccc(Oc3ccccc3)c(S(=O)(=O)O)c2)C(=O)C1 [Compound 168] are the same in “Number of Molecules Bound” value: 0 for the first, 0 for the second.

COC(=O)c1cc(OC)c(S(=O)(=O)O)s1 [Compound 151] and CCOC(=O)c1cnn(-c2ccc(S(=O)(=O)O)cc2)c1N [Compound 163] are the same in “Number of Molecules Bound” value: 0 for the first, 0 for the second.

First: Cc1cc(=O)n(-c2cccc(S(=O)(=O)O)c2)[nH]1 [Compound 154]
Second: Nc1cc(S(=O)(=O)[O-])c2cccc(S(=O)(=O)[O-])c2c1.[Na+].[Na+] [Compound 167]
The “Number of Molecules Bound” value of the first is higher: 1 for the first, 0 for the second.

First: CN(C)C(=O)[n+]1ccc(CCS(=O)(=O)[O-])cc1 [Compound 158]
Second: Cc1oc2ccc(-c3ccccc3)cc2[n+]1CCCS(=O)(=O)[O-] [Compound 165]
The “Number of Molecules Bound” value of the first is lower: 0 for the first, 1 for the second.

First: Cc1ccc2nc(-c3ccc(N)cc3)sc2c1S(=O)(=O)O [Compound 164]
Second: Nc1ccc(-c2ccc(N)cc2S(=O)(=O)O)c(S(=O)(=O)O)c1 [Compound 166]
The “Number of Molecules Bound” value of the first is lower: 0 for the first, 2 for the second.
